# According to patent publication US11197862B2, “Methods of preventing toxicity of platinum drugs” (XOMICS BIOPHARMA, INC., priority 2015, dated 2021):
# “And” between values parts separate entries of the source, which are not always exact repeats. Identical values can stand only once. “Also recorded” adds a separate entry of the source.
# Columns and labels:
# [1] = Buflomedil plasma concentration in Balb/C mice after IV and IP administration; format: in vivo; details: male, mouse
# Method: Male mice of 7-8 weeks of age were allowed to acclimate for 6 days. […] Blood was collected at 0.083, 0.5, and 1 hour into Heparin tubes. The plasma was obtained through centrifugation of the blood at 4000 rpm at 4° C.
# For plasma sample analysis, the samples were thawed and mixed well before 20 µL aliquots were processed using protein precipitation by internal standard (Verapamil) containing organic solution, methanol: acetonitrile 5:95 (v/v). After vigorous vortexing and refrigerated centrifugation at 4000 rpm, 50 μL of the extract from each sample was reconstituted with 70 μL of 0.1% formic acid in water. […] The calibration curve was extracted in the same way as the plasma samples. The final extracts were analyzed by LC-MS/MS using positive electrospray ionizations under the multiple-reaction-monitoring (MRM) mode for the detection of buflomedil. The standard curve fitted by linear regression was used to quantify the analyte in the matrix using Analyst 1.5.2 software (AB Sciex) Results
# [2] = system: Balb/c mice exposed to chronic treatment with Oxaliplatin; assay: Morphometry and histopathology of DRG neurons in chronic oxaliplatin neuropathy model; format: in vivo, mouse; details: for area of DRG neuron cell bodies and nucleoli (morphometry): OXA 3.5 mg/kg iv twice a week for 4 weeks (8 cycles) ± BFMD 30 mg/kg ip + 15 mg/kg iv
# Source text: The investigator was blind to the nerve and DRG conditions for these analyses. Three animals from each group were sacrificed four days after the last oxaliplatin dose. The left sciatic nerves and the L4-L5 DRGs were harvested and processed following previously reported protocols, resin embedded and sectioned for light and electron microscope analysis. For the light microscopy analysis, 1 μm semithin sections were stained with toluidine blue and examined using a Nikon Eclipse E200 light microscope (Nikon, Firenze, Italy). For the electron microscopy analysis, ultrathin sections (80 nm) counterstained with uranyl acetate and lead citrate, were examined with a Philips CM 10 transmission electron microscope (Philips, Eindhoven, Netherlands).
# The investigator was blind to the experimental conditions of the tissue for these experiments. One micron thick semithin sections stained with toluidine blue were used for morphometric examination of the DRGs from control (n=3) and oxaliplatin-treated mice (n=3). (Renn et al. Molecular Pain 2011, 7:29). Only the cells where the nucleolus was included in the section plane of 50 μm-spaced out sections were considered to avoid the overlapping of the same cell bodies and they were analyzed with computer-assisted image analysis (ImageJ, NIH) to measure the soma and nucleolus size of at least 300 DRG neurons per mouse.
# [3] = system: Balb/c mice exposed to chronic treatment with Oxaliplatin; assay: Dynamic Plantar Aesthesiometer Test in chronic oxaliplatin neuropathy model; format: in vivo, mouse; details: for mechanical allodynia, Dynamic Aesthesiometer Test at the end of treatment: OXA 3.5 mg/kg iv, 8 cycles ± BFMD 30 mg/kg ip + 15 mg/kg iv
# Method: The Dynamic Plantar Aesthesiometer Test was used to determine the alterations in mechanical pain perception and their changes due to pharmacological treatment. Mice were accustomed to the device 3 days before performing the tests after a 1 hour acclimatization period followed by testing. The mechanical nociceptive threshold was assessed using a Dynamic Aesthesiometer Test (model 37450, Ugo Basile Biological Instruments, Comerio. Italy), which generated a linearly increasing mechanical force. At each time point, after the acclimatization period, a servo-controlled mechanical stimulus (a pointed metallic filament, 0.5-mm diameter) was applied to the plantar surface of the hind paw, which exerted a progressively increasing punctuate pressure, reaching up to 15 g within 15 seconds. The pressure evoking a clear voluntary hind-paw withdrawal response was recorded automatically and taken as representing the mechanical nociceptive threshold index. The mechanical threshold was always assessed alternatively on each side every 2 minutes on 3 occasions to yield a mean value. The results represent the maximal pressure (expressed in grams) tolerated by the animals. There was an upper limit cutoff of 30 seconds, after which the mechanical stimulus was automatically terminated.
# [4] = system: Balb/c mice exposed to chronic treatment with Oxaliplatin; assay: Caudal nerve conduction study in chronic oxaliplatin neuropathy model; format: in vivo, mouse; details: for caudal nerve action potential amplitude / caudal nerve conduction velocity: OXA 3.5 mg/kg iv, 8 cycles ± BFMD 30 mg/kg ip + 15 mg/kg iv
# Method: The development of peripheral neuropathy after chronic administration of drugs was assessed by evaluating the nerve conduction velocity (NCV) along caudal and digital nerve using an electromyography apparatus (Myto2 ABN Neuro, Firenze, Italy). Caudal NCV was determined by placing a couple of recording needle electrodes at the base of the tail and a couple of stimulating needle electrodes 3.5 cm distally to the recording points. Similarly, the digital NCV was determined by placing the recording electrodes close to the ankle bone and the stimulating electrodes close to the fourth toe near the digital nerve. The intensity, duration and frequency of stimulation were set up in order to obtain optimal results. All the neurophysiological determinations were performed under standard conditions in a temperature-controlled room (22+/−2° C.) and the animal under isoflurane anesthesia along the whole procedure with continuous monitoring of vital signs.
# [5] = Tissue platinum accumulation by atomic absorption after 8 cycles of oxaliplatin; format: in vivo, mouse; details: buflomedil 80 mg/kg po; 8 cycles OXA; 24 h after last administration
# Method: At the end of 8 cycles of treatment, cold plate test, dynamic test and NCS test were conducted in all mice. Platinum content in DRG, Sciatic nerves and kidney of 3 mice each in the OXA and OXA+BFMD groups, was measured using the method below. The tissue total platinum concentration was determined on frozen sciatic nerve. […] For each tissue, a calibration with control standard tissue was generated. All frozen test samples and standards were treated for a digestion process with a specific HNO3: HCl solution (1:3). The samples obtained after digestion were analyzed by “Atomic Absorption” (Analyst 600 Perkin Elmer, Monza, Italy), and platinum tissue concentration was calculated accordingly.
# [6] = cited from earlier work
# [7] = system: Balb/c mice exposed to acute treatment with Oxaliplatin; assay: Cold plate test after a single oxaliplatin administration; format: in vivo, mouse; details: 48 hours after single OXA 3.5 mg/kg iv, DTG 4 mg/kg ip 1 hour before
# Method: OXA vehicle, OXA, CPC, DTG, DTG+OXA and CPC+OXA were administered once time. In the group co-administered with OXA and DTG. DTG was injected intraperitoneally 1 hour before the administration of OXA. In the group co-administered with OXA and CPC, CPC was co-administered with OXA intravenously. Mechanical allodynia and cold sensory threshold (dynamic test and cold plate test) were performed 24 and 48 hours after the treatment, respectively, using the methods described in EXAMPLE 15 Plasma Sample Collection
# [8] = 14-week toxicity study in monkey, females, PMDA 2012, cited from earlier work
# [9] = buflomedil 80 mg/kg po 2 hours before OXA, 8 cycles, n=3/group
compound,measurement,setting,value
"COc1cc(OC)c(C(=O)CCCN2CCCC2)c(OC)c1 [Buflomedil, 4-pyrrolidin-1-yl-1-(2,4,6-trimethoxyphenyl)butan-1-one]",concentration at 10 min,"[1]; Balb/C, other: IV/IP (intravenous group and intraperitoneal groups), 10 mg/kg IV, 20 or 40 mg/kg IP, each group",> 2000 ng/mL
same,bioavailability,"[1]; ip, Balb/C mice, read-out: estimated bioavailability of IP administration",40 to 60%
same,area of DRG neuron cell bodies and nucleoli (morphometry),[2]; listed as BFMD,nearly completely prevented OXA's induced DRG neuronal injury; also recorded: no difference from the CTRL group
same,area of DRG neuron cell bodies and nucleoli (morphometry),[2]; listed as buflomedil,effective on preventing dorsal root ganglion (DRG) nerve cell injury
same,DRG histopathology (light and electron microscopy),"[2]; OXA 3.5 mg/kg iv, 8 cycles ± BFMD 30 mg/kg ip + 15 mg/kg iv",look clearly similar to the control
same,"mechanical allodynia, Dynamic Aesthesiometer Test at the end of treatment",[3]; listed as BFMD,only the groups treated with OXA alone showed the development of mechanical allodynia
same,"mechanical allodynia, Dynamic Aesthesiometer Test at the end of treatment",[3]; listed as buflomedil,effective on preventing mechanical allodynia
same,mechanical allodynia (mechanical pain threshold),[3]; [9],effective on reducing mechanical (FIG. 30A) and cold (FIG. 30B) allodynia; also recorded: showed protective effects against OXAIPN
same,caudal nerve action potential amplitude,[4]; listed as BFMD,no statistically significant difference among CTRL. BFMD and OXA+BFMD groups
same,caudal nerve conduction velocity,[4]; listed as BFMD,small but statistically significant increase when compared to OXA alone
same,caudal nerve action potential amplitude,[4]; listed as buflomedil,effective on reducing peripheral neurotoxicity
same,caudal nerve conduction velocity,[4]; listed as buflomedil,effective on reducing peripheral neuropathy
same,nerve injury assessed by caudal NCV,[4]; [9],effective on reducing nerve injury; also recorded: showed protective effects against OXAIPN
same,platinum (oxaliplatin) accumulation in DRG,[5],effective on reducing platinum accumulation in DRG; also recorded: significant decrease in oxaliplatin accumulation in DRG
same,platinum (oxaliplatin) accumulation in kidney,[5],effective on reducing platinum accumulation; also recorded: reduced oxaliplatin accumulation in the kidney
same,platinum (oxaliplatin) accumulation in sciatic nerves,[5],such decrease was not seen in sciatic nerves
same,plasma level associated with serious toxicities,"[6]; European Medicines Agency 2012, Bourguignon 2012",above 10 mg/I and > 32.5 uM
same,MTC (maximum tolerable concentration),[6]; plasma,10 mg/I
C[C@@H]1CCO[C@H]2Cn3cc(C(=O)NCc4ccc(F)cc4F)c(=O)c(O)c3C(=O)N12 [Dolutegravir],"cold allodynia, cold plate",[7],effective on reducing cold hypersensitivity
same,"cold allodynia, cold plate",[7]; listed as DTG,protects the animal from cold allodynia
same,mean plasma Cmax at the NOAEL dose,[8],23500 ng/mL
same,Cmax,[8]; read-out: mean plasma Cmax at the NOAEL dose,54.8 µM
